# Assay results taken from ChEMBL document CHEMBL1143634, “Calculating virtual log P in the alkane/water system (log P(N)(alk)) and its derived parameters deltalog P(N)(oct-alk) and log D(pH)(alk)” (J Med Chem, 2005).
# Assay: Lipophilicity determined as logarithm of the partition coefficient in the alkane/water system
# Settings: octanol/water
row,Compound,Log PNalk
1,c1ccc2[nH]ccc2c1 [INDOLE],0.68
2,CCCCCCCO [1-HEPTANOL],1.01
3,CCCC(C)=O,0.43
4,CN[C@@H](C)Cc1ccccc1 [METHAMPHETAMINE],1.24
5,C[C@]12CCC(=O)C=C1CC[C@@H]1[C@@H]2[C@@H](O)C[C@]2(C=O)[C@@H](C(=O)CO)CC[C@@H]12 [ALDOSTERONE],-2.7
6,CC(C)c1ccccc1O,0.96
7,Cc1cccc(O)c1 [METACRESOL],-0.35
8,Cn1c(=O)c2[nH]cnc2n(C)c1=O.O [THEOPHYLLINE],-1.7
9,Cc1ccc(O)cc1 [p-CRESOL],-0.19
10,COc1ccc(Cc2nccc3cc(OC)c(OC)cc23)cc1OC [PAPAVERINE],0.75
11,COc1ccc(CCN2CCC(Nc3nc4ccccc4n3Cc3ccc(F)cc3)CC2)cc1 [ASTEMIZOLE],0.95
12,O=C(O)c1ccc(O)cc1 [PARABEN],-1.82
13,COc1cccc([C@@]2(O)CCCC[C@@H]2CN(C)C)c1 [TRAMADOL],1.82
14,Cc1ccc(C)c(O)c1,0.38
15,COc1ccc([C@@H]2Sc3ccccc3N(CCN(C)C)C(=O)[C@@H]2OC(C)=O)cc1 [DILTIAZEM],1.37
16,CC(=O)CC(c1ccccc1)c1c(O)c2ccccc2oc1=O (configuration not stated) [WARFARIN],0.05
17,CSc1ccccc1,2.81
18,O=[N+]([O-])c1ccccc1O [NITROPHENOLATE],1.04
19,Cc1ccccc1O [ORTHOCRESOL],0.25
20,C[C@]12CC[C@@H]3c4ccc(O)cc4CC[C@H]3[C@@H]1CC[C@@H]2O [ESTRADIOL],-0.2
21,COc1ccc(O)cc1 [MEQUINOL],-1.03
22,NC1=NCC2c3ccccc3Cc3ccccc3N12 (configuration not stated) [EPINASTINE],1.76
23,CCC1(c2ccccc2)C(=O)NC(=O)NC1=O [PHENOBARBITAL],-2.75
24,CCCCC [PENTANE],4.18
25,c1ccc2cnccc2c1 [ISOQUINOLINE],1.11

row,Compound,Log PNalk
1,Nc1ccccc1[N+](=O)[O-] [2-NITROANILINE],0.31
2,Clc1ccccc1 [CHLOROBENZENE],2.99
3,O=C([O-])Cc1ccccc1Nc1c(Cl)cccc1Cl.[Na+] [DICLOFENAC SODIUM],1.72
4,CN1CCC[C@H]1c1cccnc1 [NICOTINE],0.03
5,CS(=O)(=O)c1ccccc1 [METHYLPHENYLSULFONE],-0.87
6,CCCCCO [1-PENTANOL],-0.4
7,Nc1cccc(Cl)c1 [3-CHLOROANILINE],0.71
8,O=C1NC(=O)C(c2ccccc2)(c2ccccc2)N1 [PHENYTOIN],-0.3
9,Nc1ccccc1 [ANILINE],0.03
10,N#Cc1ccc(O)cc1 [4-CYANOPHENOL],-2.29
11,CC(C)(C)NC[C@H](O)COc1nsnc1N1CCOCC1 [TIMOLOL],-1
12,CSC,0.98
13,CC(N)Cc1ccccc1 (configuration not stated) [AMPHETAMINE],0.73
14,CCCCN [BUTYLAMINE],-0.62
15,CC(=O)[C@H]1CC[C@H]2[C@@H]3CCC4=CC(=O)CC[C@]4(C)[C@H]3CC[C@]12C [PROGESTERONE],1.23
16,Cc1ncc2c(c1O)COC2c1ccc(Cl)cc1 (configuration not stated) [CICLETANINE],-1.76
17,O=Cc1ccccc1 [BENZALDEHYDE],1.12
18,CC(C)CO [ISOBUTANOL],-0.98
19,Oc1ccccc1Cl [2-CHLOROPHENOL],0.76
20,Oc1cccc(F)c1,-0.83
21,CO [METHYL ALCOHOL],-2.8
22,CCN [ETHYLAMINE],-1.77
23,C[C@]12C[C@H](O)[C@H]3[C@@H](CCC4=CC(=O)CC[C@@]43C)[C@@H]1CC[C@@H]2C(=O)CO [CORTICOSTERONE],-1.62
24,Nc1cccc([N+](=O)[O-])c1 [3-NITROANILINE],-0.46
25,Cc1ccc(O)c(C)c1,0.34

row,Compound,Log PNalk
1,Fc1ccccc1 [FLUOROBENZENE],2.46
2,O=[N+]([O-])c1cccc(O)c1 [3-NITRO-PHENOL],-1.23
3,Oc1ccccc1 [PHENOL],-0.82
4,CC(C)=O [ACETONE],-0.91
5,Ic1ccccc1 [IODOBENZENE],3.33
6,[O-][n+]1ccc2ccccc2c1,-2.51
7,Nc1ccc(Cl)cc1 [4-CHLOROANILINE],0.57
8,CC(C)Cc1ccc(C(C)C(=O)O)cc1 (configuration not stated) [IBUPROFEN],2.08
9,C[C@]12CC[C@@H]3c4ccc(O)cc4CC[C@H]3[C@@H]1CCC2=O [ESTRONE],0.48
10,CN1C(=O)NC(=O)C(C)(C2=CCCCC2)C1=O (configuration not stated) [HEXOBARBITAL],-0.57
11,CN[C@@H](C)[C@H](O)c1ccccc1 [EPHEDRINE],-0.77
12,CCCCNc1ccc(C(=O)OCCN(C)C)cc1 [TETRACAINE],1.75
13,COCCc1ccc(OCC(O)CNC(C)C)cc1 (configuration not stated) [METOPROLOL],-0.38
14,CCC(=O)O [PROPIONIC ACID],-2.14
15,C[C@]12CC[C@H]3[C@@H](CCC4=CC(=O)CC[C@@]43C)[C@@H]1CC[C@@H]2O [TESTOSTERONE],0.41
16,Cc1cc(C)cc(O)c1,0.32
17,[O-][n+]1cccc2ccccc21,-2.05
18,COc1ccc(CN(CCN(C)C)c2ccccn2)cc1 [PYRILAMINE],2
19,CC1CCc2cc(F)cc3c(=O)c(C(=O)O)cn1c23 (configuration not stated) [FLUMEQUINE],-1.37
20,COC(=O)c1ccccc1 [METHYL BENZOATE],2.13
21,CCN(CC)CCOC(=O)c1ccc(N)cc1 [PROCAINE],-0.67
22,N#Cc1ccccc1 [BENZONITRILE],0.9
23,C[S+]([O-])c1ccccc1 (configuration not stated) [METHYLPHENYLSULFOXIDE],-1.52
24,CC(C)(C)c1ccc(C(O)CCCN2CCC(C(O)(c3ccccc3)c3ccccc3)CC2)cc1 (configuration not stated) [TERFENADINE],2.63
25,CCC1(CC)C(=O)NC(=O)NC1=O [BARBITAL],-2.15

row,Compound,Log PNalk
1,CN(C)c1ccccc1,2.4
2,C[C@]12CCC(=O)C=C1CC[C@@H]1[C@@H]2CC[C@@]2(C)[C@H]1CC[C@]2(O)C(=O)CO [CORTODOXONE],-1
3,CC(=O)[C@H]1CC[C@H]2[C@@H]3CC=C4C[C@@H](O)CC[C@]4(C)[C@H]3CC[C@]12C [PREGNENOLONE],0.62
4,COC(C)=O [ACETIC ACID METHYL ESTER],-0.26
5,Oc1ccc(Cl)cc1 [PARACHLOROPHENOL],-0.12
6,c1ccc2ncccc2c1 [QUINOLINE],1.26
7,COc1ccc(C(=O)O)cc1 [p-ANISIC ACID],-0.15
8,O=C(O)CCl [CHLOROACETIC ACID],-3.14
9,CCOC(C)=O [ETHYL ACETATE],0.29
10,O=[N+]([O-])c1ccc(O)cc1 [P-NITROPHENOL],-2.15
11,Cc1ccccc1N [O-TOLYLAMINE],0.47
12,COc1ccccc1 [ANISOLE],2.15
13,NCc1ccccc1 [BENZYLAMINE],-0.21
14,Cc1ccc(Cc2cnc(NCCCCc3ncc(Br)cc3C)[nH]c2=O)cn1 [TEMELASTINE],1.28
15,COc1ccccc1O [GUAIACOL],0.36
16,CC(C1=C(CCN(C)C)Cc2ccccc21)c1ccccn1 (configuration not stated),1.65
17,CCCOC(C)=O [ACETIC ACID PROPYL ESTER],0.9
18,Brc1ccccc1 [BROMOBENZENE],3.12
19,O=C(O)c1ccccc1O [SALICYLIC ACID],-0.92
20,N#Cc1ccccc1O,-1.85
21,c1ccc(-c2ccccc2)cc1 [BIPHENYL],4
22,O=[N+]([O-])c1ccc(/C=N/O)o1 [NIFUROXIME],-1.1
23,Oc1ccc2ccccc2c1 [BETANAPHTHOL],0.3
24,O=S(=O)(c1ccccc1)c1ccccc1 [(PHENYLSULFONYL)BENZENE],1.45
25,OCc1ccccc1 [BENZYL ALCOHOL],-0.62

row,Compound,Log PNalk
1,CCCC(C)C1(CC)C(=O)NC(=S)NC1=O (configuration not stated) [THIOPENTAL],0.52
2,Oc1cc(Cl)cc(Cl)c1,0.35
3,O=[N+]([O-])c1ccccc1 [NITROBENZENE],1.55
4,Oc1ccccc1Br,1.04
5,"Oc1c(Cl)cccc1Cl [2,6-DICHLOROPHENOL]",1.31
6,O=C(CCCN1CCC(O)(c2ccc(Cl)cc2)CC1)c1ccc(F)cc1 [HALOPERIDOL],1.53
7,Cc1ccc(C(C)C)c(O)c1 [THYMOL],1.4
8,O=C(O)C(Cl)(Cl)Cl [TRICHLOROACETIC ACID],-2.63
9,[O-][n+]1ccc(-c2ccccc2)cc1,-2.36
10,C=CCC1(C(C)CCC)C(=O)NC(=O)NC1=O (configuration not stated) [SECOBARBITAL],-0.99
11,CN(C)CCCN1c2ccccc2Sc2ccc(Cl)cc21 [CHLORPROMAZINE],4.37
12,C1CCSC1 [TETRAHYDROTHIOPHENE],1.59
13,O=C(O)Cc1ccccc1 [PHENYLACETIC ACID],-1.6
14,C[C@]12CC[C@@H]3c4ccc(O)cc4CC[C@H]3[C@@H]1C[C@@H](O)[C@@H]2O [ESTRIOL],-0.64
15,CC(C(=O)O)c1cccc(C(=O)c2ccccc2)c1 (configuration not stated) [KETOPROFEN],0
16,Oc1ccc(C(F)(F)F)cc1,-0.15
17,C[C@]12CC[C@H]3[C@@H](CCC4=CC(=O)CC[C@@]43C)[C@@H]1CC[C@@H]2C(=O)CO [DESOXYCORTICOSTERONE],0.48
18,CN(C)CCC(c1ccc(Cl)cc1)c1ccccn1 (configuration not stated) [CHLORPHENIRAMINE],2.09
19,CNC(=O)Oc1ccc2c(c1)[C@]1(C)CCN(C)[C@@H]1N2C [PHYSOSTIGMINE],-0.46
20,CCCCC(C)=O,0.87
21,OCCOCCN1CCN(C(c2ccccc2)c2ccc(Cl)cc2)CC1 (configuration not stated) [HYDROXYZINE],1.25
22,CC(C)(C)NC[C@H](O)COc1ccccc1C1CCCC1 [PENBUTOLOL],3.06
